Common to all, as to assay: NCI anticancer screen, dose series, 48 h
Experiment [1] has as its system ACHN renal.
In experiment [2] the test system is COLO 205 colon.
Experiment [3] relates to DU-145 prostate.
Experiment [4] concerns HL-60(TB) leukemia.
Experiment [5] deals with HOP-62 NSCLC.
Experiment [6] deals with HT29 colon.
In experiment [7] the test system is KM12 colon.
Experiment [8] relates to MOLT-4 leukemia.
In experiment [9] the test system is NCI-H226 lung.
The subject of experiment [10] is RPMI-8226 leukemia.
Experiment [11] has as its system RXF 393 renal.
Experiment [12] concerns SF-539 CNS.
In experiment [13] the test system is SNB-75 CNS.
Experiment [14] concerns SR leukemia.
In experiment [15] the test system is UACC-257 melanoma.
Experiment [16] deals with CAKI-1 renal.

Structures are written as SMILES. “And” between values parts separate entries of the source, which are not always exact repeats. Identical values can stand only once.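 Values below derive from 48-hour exposures of cells grown in 96-well plates, with endpoints linearly interpolated between the two concentrations bracketing the appropriate inhibition level. Abbreviation: GI50, concentration required for 50% inhibition of growth. At the TGI there is no net growth.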 *1 amine or outer side, *2 acyl side, *3 side chain or, on linkers, in order; H or OH if unused. Where a SMILES comes first, the peptide text is derived from it. [ ]: non-standard residue; d: D form. The star is where a group is joined. X31 = CC(=O)N(C)SCC(N[*:1])C(=O)[*:2]; Fmoc = O=C(OCC1c2ccccc2-c2ccccc21)*; For = O=C*

With `O=C1c2c(ccc3c2CCCC3)CC1Cc1ccc2c(c1)CCCC2` (stereo not drawn), the TGI in [1] is above 100 µM; in [2], above 100 µM; in experiment [3] it was above 100 µM; in experiment [4] it was 46.9 µM; in [5], above 100 µM; in experiment [6], above 100 µM. In addition, the TGI is above 100 µM in experiment [7]; above 100 µM in experiment [8]; above 100 µM in experiment [9]; above 100 µM in experiment [10]; 78.5 µM in experiment [11]; above 100 µM in experiment [12]. In addition, the TGI in experiment [13] was above 100 µM; in experiment [14], 67.6 µM; in experiment [15], 71 µM.

As to `COc1nc(C)nc2c1ncn2Cc1ccccc1`, the TGI in experiment [1], in experiment [16], in experiment [2], in experiment [3], in [4] and in experiment [5] was above 100 µM in each case. Further, the TGI in experiment [6], in experiment [7], in experiment [9], in [10], in experiment [11] and in [12] was above 100 µM each time. Besides, the TGI in experiment [13], in experiment [14] and in [15] was above 100 µM each time.

`Cc1ccc(Nc2cn(COCc3ccccc3)c(=O)[nH]c2=O)cc1`: the TGI in experiment [1], in experiment [16], in experiment [2], in experiment [3], in experiment [4] and in experiment [5] was above 100 µM throughout. In addition, the TGI in experiment [6], in [7], in experiment [8], in experiment [9], in [10] and in [11] was above 100 µM throughout. Further, the TGI in experiment [14] and in experiment [15] was above 100 µM throughout.

Turning to `CCN1C(=O)CS/C1=N\NC(=O)CSc1nc2ccccc2c(=O)n1CC`, the TGI in [1], in experiment [16], in experiment [2], in experiment [3], in experiment [4] and in experiment [5] was above 100 µM throughout. Besides, the TGI in experiment [7], in experiment [8], in [9], in experiment [10], in experiment [11] and in experiment [12] was above 100 µM throughout. Moreover, the TGI in experiment [13], in experiment [14] and in [15] was above 100 µM in each case.

Consider `COC(=O)CNCC1OC2OC(C)(C)OC2C1N=[N+]=[N-]` (stereo not drawn), for which the TGI in experiment [1], in experiment [16], in [3], in experiment [4], in [5] and in experiment [6] was above 100 µM each time. The TGI in experiment [7], in experiment [8], in experiment [9], in [10], in experiment [11] and in [12] was above 100 µM each time. The TGI in experiment [13], in experiment [14] and in experiment [15] was above 100 µM in each case.

With `COC(=O)[C@@H]1[C@H](O)CC[C@H]2[C@@]1(C)CC[C@@H](C)[C@]2(COC(C)=O)CC(=O)c1ccoc1`, the TGI in experiment [1], in experiment [16], in [2], in experiment [3], in experiment [4] and in experiment [6] was above 50 µM throughout. For the same compound, the TGI in [7], in experiment [8], in experiment [9], in [10], in experiment [11] and in experiment [12] was above 50 µM in each case. Besides, the TGI in [13], in [14] and in [15] was above 50 µM in each case.

`CC(Cc1ccc2c(c1)OCO2)N(C)C(=O)C1=CCN(C)CC1` (stereo not drawn): the TGI in experiment [1], in experiment [16], in [2], in [3], in [4] and in experiment [5] was above 100 µM in each case. The TGI in experiment [6], in experiment [7], in experiment [8], in [9], in experiment [10] and in [11] was above 100 µM each time. For the same compound, the TGI in experiment [13], in experiment [14] and in experiment [15] was above 100 µM each time.

As for `COC(=O)C1=NN2c3ccccc3CN([C@@H](C)c3ccccc3)C(=O)[C@H]2[C@@H]1C`, the TGI in experiment [1] was above 100 µM; in experiment [16], above 100 µM; in experiment [2], 66.8 µM; in experiment [3], above 100 µM; in experiment [4], above 100 µM; in [5] it was above 100 µM. Also, the TGI in [6], in [7], in experiment [8], in experiment [9], in [11] and in experiment [12] was above 100 µM each time. Also, the TGI is 95 µM in [13], above 100 µM in [14] and above 100 µM in [15].

In the case of `CC(=O)N(C)SCC(NC(=O)C(Cc1ccccc1)NC(=O)OCC1c2ccccc2-c2ccccc21)C(=O)NC(Cc1ccccc1)C(=O)NC(Cc1cn(C=O)c2ccccc12)C(=O)NC(CCCCNC(=O)OCC1c2ccccc2-c2ccccc21)C(=O)NC(C(=O)NC(CSN(C)C(C)=O)C(=O)NC(C(N)=O)C(C)O)C(C)O` (stereo not drawn) (Fmoc-F[X31]FW(For)K(Fmoc)T[X31]T-NH2; configuration not given here), the TGI in [1], in experiment [2], in experiment [3], in [4], in experiment [5] and in [6] was above 100 µM throughout. The TGI in experiment [7] was 64.5 µM; in [8] it was above 100 µM; in experiment [9], above 100 µM; in experiment [10], above 100 µM; in experiment [11] it was 72.3 µM; in experiment [12] it was above 100 µM. Moreover, the TGI in experiment [13], in experiment [14] and in experiment [15] was above 100 µM each time.

Take `CCSC12CC3c4cccc5c4C(CN5C(=O)c4ccccc4)CC3(O1)N(C)C2=O` (stereo not drawn): the TGI in [1] is above 100 µM; in [16], above 100 µM; in [2] it was 75 µM; in experiment [3] it was above 100 µM; in experiment [4] it was 55.7 µM; in [6], above 100 µM. In addition, the TGI in experiment [7] was above 100 µM; in experiment [8] it was 62.6 µM; in experiment [9], above 100 µM; in experiment [11], above 100 µM; in experiment [12], above 100 µM; in experiment [13] it was above 100 µM. For the same compound, the TGI in experiment [14] was 77.6 µM; in experiment [15], above 100 µM.

Consider `Cc1cn2c(/C=C3/C(=O)Nc4ccccc43)c(C)nc2s1`, for which the TGI in [1] is above 100 µM; in [16] it was above 100 µM; in [2], 15.6 µM; in experiment [3], above 100 µM; in [4], 2.53 µM; in experiment [5], above 100 µM. Further, the TGI in experiment [6] is 15.5 µM; in experiment [7], 29.7 µM; in experiment [8], 15.2 µM; in [10], 21 µM; in [11], above 100 µM; in experiment [12], 7.83 µM. For the same compound, the TGI is above 100 µM in [13], 47 µM in [14] and above 100 µM in experiment [15].

`Cc1ccc(-n2cc(-c3ccc(Cl)cc3)c(C#N)c2N)cc1`: the TGI in experiment [1] stood at 50 µM; in [16], 45.3 µM; in experiment [2] it was 27.1 µM; in experiment [3], 71.4 µM; in [4], 90.7 µM; in experiment [5], 31.9 µM. In addition, the TGI in experiment [6] was 27 µM; in [9], 31.7 µM; in experiment [11] it was 23.1 µM; in experiment [12] it was 30.9 µM; in experiment [13], 47.9 µM; in experiment [14] it was above 100 µM. In addition, the TGI in [15] amounted to 27.9 µM.

With `C(=N/NC1=NCCN1)/c1c2ccccc2c(/C=N\NC2=NCCN2)c2ccccc12`, the TGI in experiment [1] is 1.26 µM and 3.97 µM; in [16], 2.78 µM and 5.02 µM and 6.65 µM; in experiment [2] it was 0.366 µM and 0.609 µM and 1.41 µM; in experiment [3] it was 0.623 µM and 3.43 µM; in experiment [4] it was 1.13 µM and 2.33 µM and 0.725 µM; in [5], 0.611 µM and 1.75 µM and 0.597 µM. The TGI in experiment [6] was 1.36 µM and 1.41 µM and 2.04 µM; in experiment [7], 0.816 µM and 0.96 µM and 2 µM; in [9], 0.352 µM and 0.239 µM and 0.445 µM; in experiment [10], 0.798 µM and 2.11 µM and 1.26 µM; in experiment [11], 0.829 µM and 2.08 µM and 0.596 µM; in [12], 0.345 µM and 0.857 µM and 0.402 µM. Also, the TGI in experiment [13] was 0.054 µM and 0.426 µM and 0.44 µM; in experiment [14], 0.759 µM and 4.29 µM; in experiment [15] it was 0.393 µM and 0.902 µM and 0.801 µM. For the same compound, the GI50 in experiment [3] is 0.0878 µM; in experiment [14] it was 0.116 µM.

On to `CCOC(=O)c1c(NC(=O)c2ccc(Br)cc2)sc2c1CCCC2`, for which the TGI in [1], in experiment [16], in experiment [2], in experiment [3], in experiment [4] and in experiment [5] was above 100 µM each time. In addition, the TGI in [6], in [7], in experiment [8], in experiment [9], in [10] and in experiment [11] was above 100 µM in each case. Moreover, the TGI in experiment [12], in experiment [14] and in experiment [15] was above 100 µM in each case.

The values are drawn from PubChem BioAssay (NCI).
